Results: ChEMBL document CHEMBL1155712, “Cytotoxic polyacetylenes from the twigs of Ochanostachys amentacea” (2001)
In brackets after ≈: the same amount, converted by molar mass.

Legend:
Assay type in all cases: functional
Settings in all cases: read-out: ED50 (the source's name)
[1] = test system: Lu1; assay: Cytotoxicity against human Lu1 cells
[2] = test system: KB; assay: Cytotoxicity against multidrug-resistant human KB cells in absence of vinblastine
[3] = test system: P388; assay: Cytotoxicity against mouse P388 cells
[4] = Cytotoxicity against human BC1 cells
[5] = test system: M109; assay: Cytotoxicity against mouse M109 cells
[6] = test system: SK-N-SH; assay: Cytotoxicity against human SK-N-SH cells
[7] = test system: KB; assay: Cytotoxicity against human KB cells
[8] = test system: SW626; assay: Cytotoxicity against human SW626 cells
[9] = test system: LNCaP; assay: Cytotoxicity against human LNCAP cells
[10] = test system: KB; assay: Cytotoxicity against multidrug-resistant human KB cells in presence of vinblastine
[11] = test system: Col2; assay: Cytotoxicity against human Col2 cells

Compound | EC50 [1] [µg/mL] | EC50 [2] [µg/mL] | EC50 [3] [µg/mL] | EC50 [4] [µg/mL] | EC50 [5] [µg/mL] | EC50 [6] [µg/mL] | EC50 [7] [µg/mL] | EC50 [8] [µg/mL] | EC50 [9] [µg/mL] | EC50 [10] [µg/mL] | EC50 [11] [µg/mL]
C[C@H](O)C#CC#CC#CC#CCCCCCCCC(=O)O [MINQUARTYNOIC ACID] | 4.1 (≈ 14.4 µM) | 4.3 (≈ 15.1 µM) | 0.18 (≈ 0.633 µM) | 3.5 (≈ 12.3 µM) | 3.7 (≈ 13 µM) | 1.4 (≈ 4.92 µM) | 3.7 (≈ 13 µM) | 4.1 (≈ 14.4 µM) | 1.6 (≈ 5.63 µM) | 2.8 | 5.5 (≈ 19.3 µM)
O=C(O)CCCCCCCC#CC#CC#CC#CC(O)CO (single isomer, unassigned) | 14.6 (≈ 48.6 µM) | 13.4 (≈ 44.6 µM) | – | > 20 | 10.1 (≈ 33.6 µM) | 6.7 (≈ 22.3 µM) | 2.6 (≈ 8.66 µM) | 19.4 (≈ 64.6 µM) | 9.2 (≈ 30.6 µM) | 11.9 | > 20
C[C@H](O)/C=C/C#CC#CC#CCCCCCCCC(=O)O | > 20 | > 20 | – | > 20 | 5.4 (≈ 18.9 µM) | 3.7 (≈ 12.9 µM) | 1.1 (≈ 3.84 µM) | 0.36 (≈ 1.26 µM) | 0.3 (≈ 1.05 µM) | > 20 | 9.9 (≈ 34.6 µM)
